In patent US20050148495A1, “Methods and materials including for treating acne” (priority 2003, published 2005):
In brackets after ≈: the same amount, converted by molar mass. Where two headings read alike, the source gives them in different places. Non-standard residues stand in square brackets, D forms with d. Residues, ends and D or L forms follow the SMILES beside them. d1Nal = N[C@H](Cc1cccc2ccccc12)C(=O)O

Columns and labels:
[1] = 0.1, 0.5, or 1% gel on 15% BSA; limit of quantification 1 ng/mL
Protocol: XMP.629 acetate gel (0.1, 0.5, or 1% XMP.629 acetate per gram gel) was applied to the skin of mini-pigs. The dose of gel in each group was calculated as that amount which would cover 15% of the body surface area (BSA) at a rate of 2 mg of gel per cm2 of BSA. The application area was washed 24 hours following XMP.629 acetate gel application. Blood samples were collected at selected times up to 168 hours after dosing, plasma was extracted, and assayed for XMP.629 using an LC/MS/MS assay (limit of quantification=1 ng/mL).

[2] = test system: Klebsiella pneumoniae; assay: microbe, parasite or virus in culture; type: cell-based
Protocol: (§1) Acne vulgaris may involve a microbial consortium. Although P. acnes may be a prominent member of such a consortium, other uncharacterized bacteria may also participate. The microbial activity of XMP.629 as an acetate gel as described in Example 5 and other commonly used antibiotics was evaluated against a panel of human pathogens using standardized NCCLS protocols. […] Lesser potency was observed against the gram-negative organisms B. fragilis, B. cepacia, P. mirabilis and S. marcescens, which are often refractory to many antimicrobial compounds.

[3] = test system: Burkholderia cepacia; assay: microbe, parasite or virus in culture; type: cell-based; settings: Burkholderia cepacia 25416
Protocol: as §1

[4] = test system: Actinobacillus actinomycetemcomitans; assay: microbe, parasite or virus in culture; type: cell-based; settings: Actinobacillus actinomycetemcomitans 43718
Protocol: as §1

[5] = test system: Escherichia coli; assay: microbe, parasite or virus in culture; type: cell-based
Protocol: as §1

[6] = test system: Serratia marcescens; assay: microbe, parasite or virus in culture; type: cell-based
Protocol: as §1

[7] = test system: Bacteroides fragilis; assay: microbe, parasite or virus in culture; type: cell-based; settings: Bacteroides fragilis 25285
Protocol: as §1

[8] = test system: Proteus mirabilis; assay: microbe, parasite or virus in culture; type: cell-based; settings: Proteus mirabilis 29852
Protocol: as §1

[9] = test system: Porphyromonas gingivalis; assay: microbe, parasite or virus in culture; type: cell-based; settings: Porphyromonas gingivalis 33277
Protocol: as §1

[10] = test system: Salmonella ryphimurium; assay: microbe, parasite or virus in culture; type: cell-based; settings: Salmonella ryphimurium SL770
Protocol: as §1

[11] = test system: Prevotella intermedia; assay: microbe, parasite or virus in culture; type: cell-based; settings: Prevotella intermedia 25261
Protocol: as §1

[12] = test system: P. aeruginosa; type: cell-based, Pseudomonas aeruginosa
Protocol: Control tubes containing only water or formulation buffer were prepared for each isolate. Initial growth controls were determined by removing 10 μL from the water control tube and diluting it by 100 fold. From this dilution, 10 μL was used for inoculation and for spreading over the surface onto Laked Blood Agar (LBA) (Anaerobe Systems, Morgan Hill, Calif.) plates. The tubes and plates were incubated in an anaerobic atmosphere at 37° C. for 48 h. […] MBC50 and 90 values represent where 50 and 90%, respectively, of the tested strain's MBC values are equal to or less than the indicated concentration.

[13] = test system: conscious telemetered cynomolgus monkeys; assay: Cardiovascular safety pharmacology test, intravenous infusion, telemetry; type: in vivo, cynomolgus monkey
Protocol: This safety pharmacology test was performed to assess the possible cardiovascular effects of XMP.629 when administered via intravenous infusion. The test was an acute experiment to identify single-dose-induced side-effects as indicated, for example, in the Guideline for General Pharmacology Studies (Japan Ministry of Health and Welfare PAB/NND Notification No. 4, Jan. 29, 1995, the disclosure of which is incorporated herein by reference).
A telemetry device/transmitter (Data Sciences, St. Paul, Minn.) was surgically implanted in the subcutaneous pocket over the mid-abdominal region into the test monkeys. The blood pressure catheter of the telemetry device was run sub-cutaneously to the left groin region and inserted into the left femoral artery, with the catheter tip placed into the abdominal aorta. In addition, electrocardiogram leads were sub-cutaneously tunneled to the appropriate anatomical regions (i.e. negative lead paced at the base of the right side of the neck and the positive lead placed within the 5th intercostals space on the left side of the thoracic cage, near the sternum).
Intravenous administration of XMP.629 was given to conscious cynomolgus primates (four males) via telemetry systems in a series of 4 acute experiments, in which escalating doses were administered over four days, with a 3 to 27-day washout period between doses. Doses were administered over a two-hour period, at a rate of 2 mL/kg/hr. The vehicle, 10 mM sodium acetate buffer, was administered on Day 0, and XMP.629 at dose levels of 5, 10, and 20 mg/kg/2 hrs on days 4, 7, and 34, respectively. The infused volume per dose was calculated using the most recent body weight measurements.
Viability checks were performed twice daily on the animals. Body weights were obtained from the animals on the day of surgery and one or two days prior to each dose. Cardiovascular assessments and body temperature measurements were collected radiotelemetrically using the implanted telemetry device/transmitter for one 24 hour period prior to the Day 0 dosing session at the same frequency/periods collected on the days of dosing. On each day of dosing, the effect of XMP.629 on various physiological parameters, such as blood pressure waveform, systolic pressure, diastolic pressure, mean pressure, ECG (axial lead) waveform, heart rate, body temperature, QA interval, P-R interval, QRS interval, QT interval, R—R interval, and QTC interval, was observed two hours before the dosing period, every five minutes for 120 minutes during each infusion period, and for 22 hours after termination of infusion (once every five minutes for one hour and then once every 30 minutes for the remaining 21 hours). […]

[14] = test system: E. coli; settings: for MBC: agent alone
[15] = test system: P. acnes strain (ATCC 6919); settings: ATCC 6919
[16] = test system: marginal ear vein of rabbits; assay: Intravenous efficacy tests in rabbits (local vein findings); type: in vivo, rabbit; settings: multiple infusions, 1-20 mg/kg/day
Protocol: A series of efficacy studies with XMP.629 was conducted where slow IV push or short term (5 to 30 min) intravenous infusions were given through the marginal ear vein at 0.1 to 1.0 mg/mL to rabbits, some of whom were previously infected with Staphylococcus aureus, E. coli, or other bacteria, or Candida albicans. […] Due to the swelling, the veins could not be infused after two to five administrations of 1-20 mg/kg/day of XMP.629. […] Secondary changes in the surrounding tissue included edema, regional fibroplasia, acute hemorrhage, and regional hemorrhagic necrosis, as well as the presence of inflammation. These macroscopic changes were similar to the changes observed in the tail veins of rats and mice in other efficacy studies conducted.

SMILES: CC(C)C[C@@H](NC(=O)[C@H](N)CCCCN)C(=O)N[C@H](Cc1ccccc1)C(=O)N[C@H](CCCNC(=N)N)C(=O)N[C@H](Cc1cccc2ccccc12)C(=O)N[C@H](CCC(N)=O)C(=O)N[C@H](C)C(=O)N[C@H](CCCCN)C(=O)N[C@H](Cc1cccc2ccccc12)C(N)=O [XMP.629, NH2-lys-leu-phe-arg-(3-(1-naphthyl)-ala)-gln-ala-lys-(3-(1-naphthyl)-ala)-CONH2] (H-[dK][dL][dF][dR][d1Nal][dQ][dA][dK][d1Nal]-NH2)
- plasma concentrations after topical administration [1]: no measurable plasma concentrations
- Minimum Inhibitory Concentrations ([2]; Klebsiella pneumoniae 19645): 2.00 µg/mL
- Minimum Inhibitory Concentrations ([2]; Klebsiella pneumoniae 29011): 8.00 µg/mL
- Minimum Inhibitory Concentrations [3]: 32.0 µg/mL
- Minimum Inhibitory Concentrations [4]: 4.00 µg/mL
- Minimum Inhibitory Concentrations ([5]; Escherichia coli 07:K1): 4.00 µg/mL
- Minimum Inhibitory Concentrations ([5]; Escherichia coli 0111:B4): 2.00 µg/mL
- Minimum Inhibitory Concentrations ([6]; Serratia marcescens 13880): 64.0 µg/mL
- Minimum Inhibitory Concentrations ([6]; Serratia marcescens 14756): 32.0 µg/mL
- Minimum Inhibitory Concentrations [7]: 16.0 µg/mL
- Minimum Inhibitory Concentrations [8]: >64 µg/mL
- Minimum Inhibitory Concentrations [9]: 4.00 µg/mL
- Minimum Inhibitory Concentrations [10]: 4.00 µg/mL
- Minimum Inhibitory Concentrations [11]: 2.00 µg/mL
- MIC90, XMP.629 data reported as MBC values [12]: 32 µg/mL (≈ 24.9 µM)
- MIC90, XMP.629 data reported as MBC values ([12]; in FB (formulation buffer)): 0.5 µg/mL (≈ 0.39 µM)
- Prolongation in prothrombin and activated partial thromboplastin times with decreases in fibrinogen ([13]; 20 mg/kg/2 hrs): 2 of 4 animals
- heart rate, QA, P-R, QRS, and R-R intervals ([13]; 5, 10, or 20 mg/kg/2 hrs): no effects
- cardiac findings ([13]; 10 or 20 mg/kg/2 hrs): ventricular extrasystoles and premature ventricular beats
- intravenous infusion dose with no adverse, related-effect ([13]; cynomolgus monkey, in vivo, iv): 5 mg/kg/2 hrs
- MBC ([14]; E. coli 706U2-1081): 16 µg/mL (≈ 12.5 µM)
- XMP.629 MBC ([14]; E. coli 4104 LF, XMP.629 alone): 16 µg/mL
- MBC ([14]; E. coli 4104 LF): 8 µg/mL (≈ 6.23 µM)
- MIC/MBC [15]: >4 µg/mL
- gross macroscopic changes at the infused vein [16]: swelling and hemorrhage into the perivascular space
